Assay results taken from patent US20080108569A1, “Compositions and Methods for Treating Diseases Associated With Phlpp” (The Regents of the University of California, priority 2005, published 2008).

Key:
PHLPP-1α = target: T1, PHLPP-1α (Homo sapiens, UniProt O60346); test: okadaic acid sensitivity of PHLPP-1α mediated dephosphorylation of Akt at Ser473 in 293T cells; format: cell-based; conditions: OA 1 μM for 15 minutes, 293T cells transfected with HA-PHLPP-1α
T1 construct: The full-length human PHLPP-1α cDNA was cloned by combining the following cDNA fragments; expressed in transfected cells; host or cells: 293T cells
T1 sequence (O60346 1-1205 isoform O60346-2): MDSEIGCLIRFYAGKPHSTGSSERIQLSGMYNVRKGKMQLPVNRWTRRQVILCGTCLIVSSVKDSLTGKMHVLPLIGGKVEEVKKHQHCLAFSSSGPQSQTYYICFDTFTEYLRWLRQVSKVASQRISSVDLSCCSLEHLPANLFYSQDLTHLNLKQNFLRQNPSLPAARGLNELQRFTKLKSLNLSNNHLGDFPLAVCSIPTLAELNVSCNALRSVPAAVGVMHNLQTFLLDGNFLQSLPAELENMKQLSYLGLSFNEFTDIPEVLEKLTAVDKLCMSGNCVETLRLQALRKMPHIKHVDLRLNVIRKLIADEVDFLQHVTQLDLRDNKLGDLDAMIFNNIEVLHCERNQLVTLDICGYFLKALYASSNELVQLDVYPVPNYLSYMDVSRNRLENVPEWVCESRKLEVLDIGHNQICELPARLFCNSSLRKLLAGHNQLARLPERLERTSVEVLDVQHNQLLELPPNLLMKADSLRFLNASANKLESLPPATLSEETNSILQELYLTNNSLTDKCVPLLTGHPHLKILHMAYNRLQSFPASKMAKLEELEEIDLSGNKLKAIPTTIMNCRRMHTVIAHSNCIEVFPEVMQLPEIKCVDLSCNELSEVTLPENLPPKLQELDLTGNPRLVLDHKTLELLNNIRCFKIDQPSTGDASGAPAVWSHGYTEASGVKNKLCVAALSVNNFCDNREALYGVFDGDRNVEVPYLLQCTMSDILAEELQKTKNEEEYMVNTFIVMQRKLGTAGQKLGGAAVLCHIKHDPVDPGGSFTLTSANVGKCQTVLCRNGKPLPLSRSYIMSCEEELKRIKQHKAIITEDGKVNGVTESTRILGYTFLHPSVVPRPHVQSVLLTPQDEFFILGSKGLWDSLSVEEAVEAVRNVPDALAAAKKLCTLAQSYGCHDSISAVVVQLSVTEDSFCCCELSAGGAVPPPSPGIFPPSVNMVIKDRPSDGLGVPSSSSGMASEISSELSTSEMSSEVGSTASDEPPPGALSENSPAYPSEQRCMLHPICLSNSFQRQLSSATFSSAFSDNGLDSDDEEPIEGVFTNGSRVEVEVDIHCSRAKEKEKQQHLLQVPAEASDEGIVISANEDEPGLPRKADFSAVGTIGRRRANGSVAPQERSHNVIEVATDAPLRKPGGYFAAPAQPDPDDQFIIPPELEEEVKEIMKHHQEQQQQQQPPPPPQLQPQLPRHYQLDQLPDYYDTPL
Protocol: FIG. 29. PHLPP-1α mediated-dephosphorylation of Akt at Ser473 is okadaic acid-insensitive. 293T cells transfected with HA-PHLPP-1α were serum starved overnight. The cells were then left untreated (lane 1), treated with insulin (100 nM) for 30 minutes (lane 2), treated with insulin for 30 minutes followed by okadaic acid (OA, 1 μM) for 15 minutes (lane 3), or treated with insulin for 30 minutes followed by OA for 15 minutes followed by LY294002 (LY, 30 μM) for 20 minutes (lane 4). Western blots showing phosphorylation of endogenous Akt as detected by P308 and P473 antibodies. Total Akt was detected using the anti-Akt antibody.

MDA-MB-231 cells = test: apoptosis assay, sub-2N DNA by flow cytometry; format: cell-based; conditions: co-expressed with PHLPP2
Protocol: Apoptosis assays were performed as described previously (Brognard et al., 2001). Briefly, cells were transfected with different PHLPP expression constructs or siRNAs. In the case of gating for transfected cells, a GFP expression construct was co-transfected into the cells. Approximately 24 hours post-transfection, the cells were switched to low serum medium (DMEM plus 0.1% FBS) and allowed to grow for an additional 48 hours. For LY294002 (25 μM) treatment, the drug was added at the time when the cells were switched into the low serum medium. The cells were collected and stained with propidium iodide (25 μg/ml). Apoptotic cells were defined as sub-2N DNA containing cells. Quantification of apoptosis was obtained using flow cytometry analysis with a Becton Dickinson FACSort.
Apoptotic assays were performed as described above. To determine G1/S ratios, cells were co-transfected with GFP and HA-PHLPP2 and incubated under high serum (10% FBS) conditions for 48 hrs and cells were gated based on GFP expression as described above. For BrdU incorporation assays, cells were transfected with 100 nM siRNA (si-1) and incubated for 48 hrs prior to performing assay following manufacturers protocol (Oncogene Research Products).

| Compound | sensitivity of PHLPP-1α mediated dephosphorylation of Akt at Ser473 (PHLPP-1α) | rescue of the apoptosis induced by PHLPP2 (MDA-MB-231 cells) |
| --- | --- | --- |
| C=C1[C@@H](O)[C@@H]2O[C@]3(CC[C@H](/C=C/[C@@H](C)[C@@H]4CC(C)=C[C@@]5(O[C@H](C[C@@](C)(O)C(=O)O)CC[C@H]5O)O4)O3)CC[C@H]2O[C@@H]1[C@@H](O)C[C@H](C)[C@H]1O[C@@]2(CCCCO2)CC[C@H]1C [okadaic acid] | insensitive |  |
| S473D: phosphomimetic and thus constitutively active Akt construct, resistant to dephosphorylation by PHLPP2 |  | two-thirds |
